{"source": "patent US20220168328A1", "about": "“METHODS AND COMPOSITIONS FOR TREATING EUKARYOTIC INFECTIONS VIA ALTERING AGGREGATION DYNAMICS OF RAPTOR/KOG1” (ARIZONA BOARD OF REGENTS ON BEHALF OF THE UNIVERSITY OF …, priority 2014, published 2022)", "key": {"ringworm": {"test_system": "ringworm", "assay": "Patient with ringworm treated with topical AICAR (Example 2)", "assay_type": "in vivo, human", "conditions": "child, 3 g AICAR", "description": "A child (height of 165 cm, weight of 55 kg) presents to their primary care physician with a red and itchy rash on their forearm. The rash is in a circular pattern. The physician diagnoses the patient with ringworm. The physician administers a dose of a topical pharmaceutical containing 3 g of AICAR, an agent that activates TORC1 aggregate formation."}, "Kog1": {"test_system": "Kog1", "assay": "Kog1 foci (Kog1 bodies) resolution in WT cells after glucose starvation", "assay_type": "cell-based, budding yeast", "conditions": "cycloheximide (CHX) alone, without glucose repletion"}, "esophageal candidiasis": {"test_system": "esophageal candidiasis", "assay": "Patient with esophageal candidiasis treated with oral phenformin (Example 1)", "assay_type": "in vivo, human", "conditions": "person, 200 mg phenformin", "description": "The physician notes the presence of white plaques on the patient's tongue. The physician diagnoses esophageal candidiasis. The physician administers an oral pharmaceutical containing 200 mg of phenformin, an agent that activates TORC1 aggregate formation."}, "TORC1": {"test_system": "TORC1", "assay": "DNA microarray measurement of TORC1 pathway output (gene expression) with and without rapamycin", "assay_type": "cell-based, S. cerevisiae", "conditions": "salt stress, 0.4M KCl; hog1Δ versus wild-type strain", "description": "Previous studies of TOR pathway signaling in stress have been limited to measuring phosphorylation of a single substrate, Sch9. As a result it was not clear whether stress signals inhibit TORC1 activity directly or simply act on one or two TORC1 targets proteins. To help distinguish between these possibilities, the complete output of TORC1 pathway in osmotic stress was measured using DNA microarrays. To do this, the cellular response was monitored with and without the potent TORC1 inhibitor rapamycin in 0.4M KCl and three control conditions: amino acid starvation, nitrogen starvation and log growth conditions.\nIn osmotic stress, Hog1/p38, the terminal kinase in the HOG pathway, is known to regulate many aspects of the stress response including transcription, chromatin remodeling, cell cycle check-points, and ion and glycerol channel regulation. […]\n(a) DNA microarray data comparing the gene expression program activated by KCl stress and the TORC1 inhibitor rapamycin. […] A phosphorylation-induced shift in the electrophoretic mobility of Sch9-3HA was measured by performing a western blot to a SDS-PAGE gel loaded with extract from cells collected before and after treatment with 0.4M KCl, using an anti-HA antibody. […] The experiment described in (b) was carried out in triplicate in wild-type and hog1A strains and the fraction of protein in the phosphorylated state was quantified using densitometry. […]"}}, "data": [{"molecule": "NC(=O)c1ncn([C@@H]2O[C@H](CO)[C@@H](O)[C@H]2O)c1N", "note": "[AICAR]", "values": [{"measurement": "outcome by four days of treatment", "setting": "ringworm", "result": "the rash is gone"}]}, {"molecule": "C[C@@H]1C[C@@H]([C@H](O)CC2CC(=O)NC(=O)C2)C(=O)[C@@H](C)C1", "note": "[cycloheximide]", "values": [{"measurement": "disaggregation of Kog1", "setting": "Kog1", "result": "does not trigger disaggregation of Kog1"}]}, {"molecule": "[H]/N=C(/N)N/C(=N/[H])NCCc1ccccc1", "note": "[phenformin]", "values": [{"measurement": "signs of improvement after one day of treatment", "setting": "esophageal candidiasis; one day", "result": "absence of white plaques on the tongue and no difficulty swallowing"}, {"measurement": "outcome by two days of treatment", "setting": "esophageal candidiasis; two days", "result": "sore throat is gone"}]}, {"molecule": "CO[C@H]1C[C@@H]2CC[C@@H](C)[C@@](O)(O2)C(=O)C(=O)N2CCCC[C@H]2C(=O)O[C@H]([C@H](C)C[C@@H]2CC[C@@H](O)[C@H](OC)C2)CC(=O)[C@H](C)/C=C(\\C)[C@@H](O)[C@@H](OC)C(=O)[C@H](C)C[C@H](C)/C=C/C=C/C=C/1C", "note": "[rapamycin]", "values": [{"measurement": "more repression by rapamycin in hog1Δ than wt", "setting": "TORC1", "result": 4, "unit": "fold"}]}]}
